The assay concerns weeds. The experiment in a line: Activity test of the compositions, soil sealing treatment. The assay is classed as in vivo. Particulars: for pest or weed control at 90 g/ha: B 6 g a.i./mu; for pest or weed control at 300 g/ha: B 20 g a.i./mu. Here is the method:
The desired active ingredient B was purchased from a reagent company or synthesized by a known method. The technical materials were all dissolved in acetone and diluted with an aqueous solution containing 0.10% emulsifier Tween-80 which were to be used immediately after dilution.
Weeds are cultivated in a controllable sunlight greenhouse at 20 to 30° C., in natural light, and with relative humidity of 57% to 72%. […] The test soil was filled quantitatively to ¾ of the pots and then watered from the bottom of the pots to completely wet the soil to saturation. The test weed seeds were accelerated to just germinate, and then evenly and quantitatively sowed on the surface, then covered with 0.5-1 cm soil according to the seed size, and ready for use 72 hours after sowing.
Each treatment was repeated 4 times. Four pots with 20 weed seeds per pot were treated each time.
The well-sowed test materials were evenly placed on a platform with an area of 0.5 m^2, and solution of agents was sprayed on the soil by the 3WP-2000-type walking spray tower at a dosage of 450 kg/ha and at a spray pressure of 0.3 MPa. After all the solution was sprayed, the valve was closed. After 30 seconds, the door of the spray tower was opened, and the nutritional bowl was taken out. Then the valve was opened, and the spray tube was cleaned by spraying 50 ml of water.
A method for investigating absolute numbers was employed. Whole seedlings of survival weeds were cut off with a blade along the soil surface, and the fresh weight of the weeds was weighed with an analytical balance. For dead weeds, the fresh weight thereof was zero.
The investigation was performed 21 days after the treatment for only once in total.

Where [1] appears, read: Echinochloa crus-galli, Echinochloa crusgalli, soil (S), B 1 g a.i./mu, read-out: Control effect (%) of B applied alone (B).
The mark [2] stands for this setting: Echinochloa crus-galli, Echinochloa crusgalli, soil (S), B 2 g a.i./mu, read-out: Control effect (%) of B applied alone (B).
The mark [3] stands for this setting: Echinochloa crus-galli, Echinochloa crusgalli, soil (S), B 4 g a.i./mu, read-out: Control effect (%) of B applied alone (B).
Setting [4] is: Echinochloa crus-galli, Echinochloa crusgalli, soil (S), B 8 g a.i./mu, read-out: Control effect (%) of B applied alone (B).
[5] abbreviates: Echinochloa crus-galli, soil, read-out: Control effect (%) of B applied alone (B).
[6] abbreviates: Lolium multiflorum, soil, read-out: Control effect (%) of B applied alone (B).
Setting [7] is: Lolium multiflorum, soil (S), B 2 g a.i./mu, read-out: Control effect (%) of B applied alone (B).
[8] abbreviates: Echinochloa crus-galli, Echinochloa crusgalli, soil (S), read-out: Control effect (%) of B applied alone (B).
Where [9] appears, read: Echinochloa crus-galli, Echinochloa crusgalli, soil (S), B 12 g a.i./mu, read-out: Control effect (%) of B applied alone (B).
Where [10] appears, read: Echinochloa crusgalli, soil (S), B 2 g a.i./mu.
The mark [11] stands for this setting: Echinochloa crusgalli, soil (S), B 4 g a.i./mu.
[12] abbreviates: Lolium multiflorum, soil (S), B 16 g a.i./mu, read-out: Control effect (%) of B applied alone (B).
The mark [13] stands for this setting: Lolium multiflorum, soil (S), B 32 g a.i./mu, read-out: Control effect (%) of B applied alone (B).

Read-outs that look alike come from different tables or passages of the source.

As for `COc1nc(OC)nc(C(=O)c2cccc(F)c2N(C)S(=O)(=O)C(F)F)n1` [triafamone], the “Control effect (%) of B applied alone (B)” value (from here on “Control effect (%)”) is, setting by setting: (Echinochloa crusgalli, soil (S), B 0.25 g a.i./mu) 27.6%; (Echinochloa crusgalli, soil (S), B 0.5 g a.i./mu) 38.4%.

For the compound `CC(C)(NC(=O)C(Br)C(C)(C)C)c1ccccc1` (stereo not drawn) [bromobutide], where the note is “Echinochloa crus-galli, Echinochloa crusgalli, soil (S), B 16 g a.i./mu, read-out: Control effect (%) of B applied alone (B)”, the pest or weed control at 240 g/ha was determined as 37.3%. Further, the pest or weed control at 480 g/ha (Echinochloa crus-galli, Echinochloa crusgalli, soil (S), B 32 g a.i./mu, read-out: Control effect (%) of B applied alone (B)) stood at 53.6%.

As to `Cc1ccccc1CO[C@@H]1C[C@@]2(C(C)C)CC[C@]1(C)O2` (racemic) [cinmethylin], the pest or weed control at 6 g/ha (Echinochloa crus-galli, Echinochloa crusgalli, soil (S), B 0.4 g a.i./mu, read-out: Control effect (%) of B applied alone (B)) was determined as 26.4%. Besides, where the note is “Echinochloa crus-galli, Echinochloa crusgalli, soil (S), B 0.8 g a.i./mu, read-out: Control effect (%) of B applied alone (B)”, the pest or weed control at 12 g/ha amounted to 38.6%.

Turning to `CS(=O)(=O)c1cc(C(F)(F)F)ccc1C(=O)c1cnoc1C1CC1` [isoxaflutole], the pest or weed control at 15 g/ha under setting [1] is 26.4%. The pest or weed control at 30 g/ha under setting [2] is 44.3%.

`Cc1nn(-c2cc(NS(C)(=O)=O)c(Cl)cc2Cl)c(=O)n1C(F)F` [sulfentrazone]: the pest or weed control at 60 g/ha under setting [3] was determined as 34.2%. Besides, the pest or weed control at 120 g/ha under setting [4] was 53.6%.

In the case of fluridone, the “Control effect (%)” value (Veronica didyma, soil (S), B 1 g a.i./mu) amounted to 37.2% and the “Control effect (%)” value (Veronica didyma, soil (S), B 2 g a.i./mu) is 50.4%.

For the compound `CC(C)=C1OC(=O)N(c2cc(OC3CCCC3)c(Cl)cc2F)C1=O` [pentoxazone], under setting [5], the pest or weed control at 30 g/ha came out at 40.1% and the pest or weed control at 60 g/ha is 57.3%.

Turning to `CS(=O)(=O)c1ccc(C(=O)C2C(=O)CCCC2=O)c(Cl)c1COCC1CCCO1` (stereo not drawn) [tefuryltrione], the “Control effect (%)” value by setting is: (Echinochloa crusgalli, soil (S), B 0.6 g a.i./mu) 28.4%; (Echinochloa crusgalli, soil (S), B 1.2 g a.i./mu) 49.7%.

With `CN(C)C(=O)Nc1ccc(Cl)c(Cl)c1` [diuron], under setting [6], the pest or weed control at 600 g/ha was 39.4% and the pest or weed control at 1200 g/ha was 65.3%.

Take `O=C(Nc1ccc(F)cc1F)c1cccnc1Oc1cccc(C(F)(F)F)c1` [diflufenican]: the pest or weed control at 15 g/ha (Lolium multiflorum, soil (S), B 1 g a.i./mu, read-out: Control effect (%) of B applied alone (B)) worked out at 37.1%. Moreover, the pest or weed control at 30 g/ha under setting [7] came to 52.4%.

With `O=C(Nc1ccc(F)cc1)c1cccc(Oc2cccc(C(F)(F)F)c2)n1` [picolinafen], the “Control effect (%)” value was 40.8% (Galium aparine, soil (S), B 0.5 g a.i./mu) and 55.7% (Galium aparine, soil (S), B 1 g a.i./mu).

For `COCC(C)N(C(=O)CCl)c1c(C)csc1C` (stereo not drawn) [dimethenamid], the pest or weed control at 90 g/ha under setting [8] stood at 31.5%. Besides, under setting [9], the pest or weed control at 180 g/ha was 43.7%.

`CCNc1nc(NC(C)(C)C)nc(SC)n1` [terbutryne]: the “Control effect (%)” value is, setting by setting: (Alopecurus japonicus, soil (S), B 12 g a.i./mu) 32.4%; (Alopecurus japonicus, soil (S), B 24 g a.i./mu) 41.9%.

For the compound `CCC(C)Nc1c([N+](=O)[O-])cc(C(C)(C)C)cc1[N+](=O)[O-]` (stereo not drawn) [butralin], under setting [6], the pest or weed control at 240 g/ha came out at 19.5% and the pest or weed control at 480 g/ha is 35.8%.

For `Cn1nc(C(F)(F)F)c(CS(=O)(=O)C2=NOC(C)(C)C2)c1OC(F)F` [pyroxasulfone], the pest or weed control at 30 g/ha under setting [7] was found to be 24.7%. Under “Lolium multiflorum, soil (S), B 4 g a.i./mu, read-out: Control effect (%) of B applied alone (B)”, the pest or weed control at 60 g/ha is 49.2%.

`CC(C)N(C)S(=O)(=O)NC(=O)c1cc(-n2c(=O)cc(C(F)(F)F)n(C)c2=O)c(F)cc1Cl` [saflufenacil]: the pest or weed control at 3.75 g/ha (Amaranthus retroflexus, soil (S), B 0.25 g a.i./mu, read-out: Control effect (%) of B applied alone (B)) was 35.2%. For the setting “Amaranthus retroflexus, soil (S), B 0.5 g a.i./mu, read-out: Control effect (%) of B applied alone (B)”, the pest or weed control at 7.5 g/ha was found to be 43.8%.

Regarding `COc1cc(OC)nc(NC(=O)NS(=O)(=O)c2c(C3=NOCC(C)O3)c(Cl)nn2C)n1` (stereo not drawn) [metazosulfuron], the “Control effect (%)” value reads like this: (Echinochloa crusgalli, soil (S), B 0.75 g a.i./mu) 32.4%; (Echinochloa crusgalli, soil (S), B 1.5 g a.i./mu) 41.6%.

In the case of `CCN(CC)C(=O)C(C)Oc1cccc2ccccc12` (stereo not drawn) [napropamide], under setting [5], the pest or weed control at 120 g/ha was found to be 30.1% and the pest or weed control at 240 g/ha stood at 42.3%.

With `CCSC(=O)N1CCCCCC1` [molinate], the pest or weed control at 300 g/ha under setting [8] was found to be 39.6%. Also, the pest or weed control at 600 g/ha (Echinochloa crus-galli, Echinochloa crusgalli, soil (S), B 40 g a.i./mu, read-out: Control effect (%) of B applied alone (B)) is 51.7%.

`CC(C)N(C(=O)n1cnn(-c2ccc(Cl)cc2Cl)c1=O)c1ccc(F)cc1F` [ipfencarbazone]: the “Control effect (%)” value is 41.5% under setting [10] and 57.6% under setting [11].

For the compound `COC(=O)[C@@H](C)O/N=C/c1cc(-n2c(=O)cc(C(F)(F)F)n(C)c2=O)c(F)cc1Cl`, where the note is “Echinochloa crus-galli, Echinochloa crusgalli, soil (S), B 0.5 g a.i./mu, read-out: Control effect (%) of B applied alone (B)”, the pest or weed control at 7.5 g/ha amounted to 31.5%. Under setting [1], the pest or weed control at 15 g/ha came out at 42.3%.

As for `CCOCN(C(=O)CCl)c1c(C)cccc1CC` [acetochlor], the pest or weed control at 180 g/ha (Lolium multiflorum, soil (S), B 12 g a.i./mu, read-out: Control effect (%) of B applied alone (B)) was determined as 36.5%. Moreover, the pest or weed control at 360 g/ha (Lolium multiflorum, soil (S), B 24 g a.i./mu, read-out: Control effect (%) of B applied alone (B)) amounted to 45.7%.

On to `CSC(=O)c1c(C(F)F)nc(C(F)(F)F)c(C(=O)SC)c1CC(C)C` [dithiopyr], for which, under setting [3], the pest or weed control at 60 g/ha stood at 40.1%. The pest or weed control at 120 g/ha under setting [4] is 53.2%.

For the compound `CCC(CC)Nc1c([N+](=O)[O-])cc(C)c(C)c1[N+](=O)[O-]` [pendimethalin], the pest or weed control at 240 g/ha under setting [12] amounted to 23.6%. In addition, the pest or weed control at 480 g/ha under setting [13] stood at 42.7%.

Consider `CC(C)N(C(=O)COc1nnc(C(F)(F)F)s1)c1ccc(F)cc1` [flufenacet], for which the pest or weed control at 90 g/ha under setting [8] was determined as 29.8%. In addition, the pest or weed control at 180 g/ha under setting [9] came to 37.5%.

As for `COc1cc(OC)nc(NC(=O)NS(=O)(=O)c2c(C(=O)O)c(Cl)nn2C)n1` [halosulfuron], the pest or weed control at 7.5 g/ha (Veronica polita, Veronica didyma, soil (S), B 0.5 g a.i./mu, read-out: Control effect (%) of B applied alone (B)) stood at 34.8%. Also, the pest or weed control at 15 g/ha (Veronica polita, Veronica didyma, soil (S), B 1 g a.i./mu, read-out: Control effect (%) of B applied alone (B)) was determined as 54.6%.

In the case of `CCCOCCN(C(=O)CCl)c1c(CC)cccc1CC` [pretilachlor], where the note is “Lolium multiflorum, soil (S), B 8 g a.i./mu, read-out: Control effect (%) of B applied alone (B)”, the pest or weed control at 120 g/ha was 23.4%. The pest or weed control at 240 g/ha under setting [12] came out at 50.9%.

Consider `CS(=O)(=O)c1ccc(C(=O)C2=C(Sc3ccccc3)C3CCC(C3)C2=O)c(Cl)c1` (stereo not drawn) [benzobicyclon], for which the “Control effect (%)” value by setting is: under setting [10], 22.6%; under setting [11], 42.8%.

Consider `O=C1C(Cl)C(CCl)CN1c1cccc(C(F)(F)F)c1` (stereo not drawn) [flurochloridone], for which the pest or weed control at 60 g/ha (Veronica polita, Veronica didyma, soil (S), B 4 g a.i./mu, read-out: Control effect (%) of B applied alone (B)) was 45.1%. The pest or weed control at 120 g/ha (Veronica polita, Veronica didyma, soil (S), B 8 g a.i./mu, read-out: Control effect (%) of B applied alone (B)) came to 60.8%.

As for `CN(C(=O)COc1nc2ccccc2s1)c1ccccc1` [mefenacet], under setting [12], the pest or weed control at 240 g/ha came out at 18.5%. For the same compound, the pest or weed control at 480 g/ha under setting [13] turned out to be 38.3%.

Turning to `CCNc1nc(Cl)nc(NC(C)C)n1` [atrazine], the pest or weed control at 300 g/ha (Lolium multiflorum, soil (S), read-out: Control effect (%) of B applied alone (B)) stood at 18.9%. Further, the pest or weed control at 600 g/ha (Lolium multiflorum, soil (S), B 40 g a.i./mu, read-out: Control effect (%) of B applied alone (B)) was 36.6%.

In the case of `CC(C)Oc1cc(-n2nc(C(C)(C)C)oc2=O)c(Cl)cc1Cl` [oxadiazon], the pest or weed control at 60 g/ha under setting [3] is 37.2%. Besides, the pest or weed control at 120 g/ha under setting [4] amounted to 51.9%.

For the compound `COC(=O)C12ON=C(c3cc(-n4c(=O)cc(C(F)(F)F)n(C)c4=O)c(F)cc3Cl)C1CCC2C` (stereo not drawn), the pest or weed control at 15 g/ha under setting [1] worked out at 40.2%. Also, the pest or weed control at 30 g/ha under setting [2] turned out to be 53.1%.

These data come from patent publication US20240327359A1, “3-ISOXAZOLIDINONE COMPOUND, PREPARATION METHOD, HERBICIDAL COMPOSITION AND APPLICATION THEREOF” (QINGDAO KINGAGROOT CHEMICAL COMPOUND CO., LTD., priority 2021, published 2024).
